These results are taken from patent publication US20140030350A1, “Drug Delivery Systems” (BIOCOMPATIBLES UK LIMITED, priority 2011, published 2014).

The data set is described as follows: UV/Vis scan of DTT effect on doxorubicin over time. It counts as physicochemical. The settings on record: high concentration of DTT, 17 hours. The procedure: Diothiothreitol (DTT) is a well known mild disulfide reducing agent and is used to maintain disulfide groups in their reduced thiol state. […] A high concentration of DTT was added to doxorubicin and was scanned at 1 hour time points using a UV/Vis spectrophotometer.

Turning to `COc1cccc2c1C(=O)c1c(O)c3c(c(O)c1C2=O)C[C@@](O)(C(=O)CO)C[C@@H]3O[C@H]1C[C@H](N)[C@H](O)[C@H](C)O1` [doxorubicin], the “Change to the absorbance of doxorubicin on exposure to DTT” value is “very little change”.
